Reference: US4053604A (priority 1975, dated 1977)
“And” between values parts separate entries of the source, which are not always exact repeats. Identical values can stand only once.

Columns and labels:
[1] = induction time of rats exposed to halothane anesthesia (loss of righting reflex); format: in vivo, male albino rats (Sprague-Dawley)
Description: (§1) The effects of Compound I on halothane-induced anesthesia were assessed using 20 rats for each dose or time interval determination. The experiments were performed on male albino rats (Sprague-Dawley) weighing from 180-220 g. A schematic representation of the apparatus used is illustrated in FIG. 1. The apparatus consists of a rectangular box made of transparent plastic (115 cm long × 28 cm high × 28 cm wide) which is divided into 4 equal chambers by perforated walls. The box rotates around a hollow axis through which gases can be delivered at several proportions from cylinders, through their respective flowmeters. An in-line halothane vaporizer is placed just before the gases reach the chambers. There is an air-tight door to every chamber through which two animals, one treated and one control, are introduced. The gases are delivered at one end of the box and suction is applied to the other end to take up the gases after flowing through the chambers. An in-line water manometer monitors the resulting pressure. This pressure is kept at 0-5 mm H2 O to make certain the gases in the anesthetic chambers remain at atmospheric pressure. The mixture of gases is delivered at a rate of 15 l/min. The inhalation anesthetic gases are delivered for ten minutes prior to the introduction of the animals into the chambers to assure an even distribution in the four chambers. The chambers rotate at four rev/min forcing the animals to tumble and allowing the experimenter to accurately time the loss and recovery of the righting reflex. Induction times are recorded as the time interval elapsed between the beginning of exposure of the animals to the gases and the moment in which they lose their righting reflex.
(§2) Groups of control animals (four at a time) were subjected to halothane concentrations ranging from 0.5 to 2.5% in a mixture of 95% O2 -5% CO2, and the induction times thus obtained were used to calculate concentration-reponse curves. Since a certain time elapsed between putting the first and the last rat into their respective chambers, each animal was timed separately with a stopwatch. […] This intermediate concentration of halothane was then used to study the effects of increasing doses of the test compound on the induction times and anesthesia times.
(§3) The animals were pretreated by administering the test compounds in dosages ranging from 10 to 500 μg/kg, i.v., at 5, 30, 60, 120, 240 and 360 minutes prior to their exposure to halothane. As soon as all animals lost their righting reflex, the O2 -halothane flow was discontinued and replaced by an equal flow of air. The animals were allowed to remain in the rotating chambers until they regained their righting reflex. Anesthesia times were determined as the interval between the time required to lose and the time to regain the righting reflex. Air flushing of the anesthetic chambers was performed after each determination and the entire procedure repeated with another group of animals for the determination of the effect of a new dose or concentration.
(§4) Drugs used in this study include: droperidol, phenoperidine hydrochloride, halothane and Compound I in the form of its hydrochloride salt. Phenoperidine hydrochloride and Compound I (hydrochloride) were dissolved separately in a warm solution of 0.9% sodium chloride. Droperidol was suspended in saline with the aid of a drop ot Tween 80 (Tween 80 is a registered trademark for a complex mixture of polyoxyethylene ethers of mixed partial oleic esters of sorbitol anhydride). Dosages are expressed in this study as the salt form of the compound where applicable. When the experimental protocol called for the concomitant administration of two drugs, these were mixed in the syringe and administered intravenously. The drugs were injected in a volume of 0.1 ml/100 g body weight.
(§5) The statistical analysis of the data was performed using Student's […]. […]

[2] = tail-flick test, analgesic activity of the agent alone; format: in vivo, albino mice; conditions: for ED50: Mus musculus, ip, 0.25 h, i.p., dose which increased analgesia by 50% when tested 15 minutes after drug administration
Source text: (§6) In the following experiments, phenoperidine and Compound I are used in the form of their hydrochloride salt and droperidol in the form of its free base in the presence of lactic acid for adjustment to pH to 3.4. Results are expressed on the basis of the form of the drug employed (i.e., free base or hydrochloride salt).
(§7) Results of such tests using albino mice are illustrated by tables 1,2 and 3 in which the neuroleptic agent, droperidol, is included for comparative purposes.
*The dose which increased analgesia by 50% when tested 15 minutes after […]

[3] = tail-flick test, potentiation of the analgesic activity of phenoperidine; format: in vivo, albino mice
Source text: as §6, §7
Potentiation of the Analgesic Activity (ED50) of Phenoperidine,
i.e. 0.5 mg/kg, by varying Doses of Neuroleptic Agents.
*PD50 refers to the dose of the neuroleptic which increased the
analgesic activity (ED50) of phenoperidine by 50%.
Modified Analgesic Activity of Phenoperidine in
the Presence of the Neuroleptic PD50. -
*ED50 refers to the analgesic activity of phenoperidine after
pretreatment with a fixed dose (PD50) of the neuroleptic agents.

[4] = respiratory minute volume and mean arterial blood pressure in rats; format: in vivo
Description: These effects are less than those encountered with neuroleptics presently available for NLA as evidenced by laboratory experiments in rats in which these cardiovascular parameters are measured before and after the administration of Compound 1 and the neuroleptic agent droperidol, see Table 8.
The Effect of Compound 1 and Droperidol on Respiratory Minute Volume
and Mean Arterial Blood Pressure

[5] = anesthesia time of rats exposed to halothane anesthesia (recovery of righting reflex); format: in vivo, male albino rats (Sprague-Dawley); conditions: phenoperidine hydrochloride 25 μg/kg, i.v.; in words
Description: as §1, §2, §3, §4, §5

[6] = behavioral changes and side effects in cebus monkeys; format: in vivo; conditions: for Behavioral Changes / Side Effects / Duration / Onset / times at which the side effect was observed: Phenoperidine, individual monkey

In the case of `FC(F)(F)C(Cl)Br` (centres unmarked) [halothane, reference compound], the “induction time, halothane alone (average)” value ([1]; control experiments, 1% halothane in 95% O2-5% CO2) is reported as 2.4 min.
In the case of `O=C(CCCN1CC=C(n2c(=O)[nH]c3ccccc32)CC1)c1ccc(F)cc1` [droperidol, reference compound], the ED50 [2] is reported as greater than 30 mg/kg, the “analgesic activity when given alone” value ([2]; in words) is reported as “no analgesic activity could be demonstrated” and the “enhancement of analgesic activity of phenoperidine by concomitant administration” value ([3]; in words) is reported as “significantly enhanced”. The “relative potentiating activity, Compound I versus droperidol” value ([3]; in words) was “equiactive”, the “PD50 of Neuroleptic Agent (dose which increased the analgesic activity (ED50) of phenoperidine by 50%)” value ([3]; mouse, in vivo, ip) was 0.55 ± 0.10 mg/kg and the “Change in Mean B.P. as % of Control” value ([4]; 25 μg/kg) was -28.4 ± 4.6 % of Control. The “Change in Minute Volume as % of Control” value ([4]; 25 μg/kg) was “+13.9 ± 3.0 % of Control”, the “Change in Mean B.P. as % of Control” value ([4]; 100 μg/kg) was -15.4 ± 5.9 % of Control and the “Change in Minute Volume as % of Control” value ([4]; 100 μg/kg) was “+15.6 ± 6.2 % of Control”. For the same compound, the “Change in Mean B.P. as % of Control” value ([4]; 250 μg/kg) was -26.9 ± 3.2 % of Control and the “Change in Minute Volume as % of Control” value ([4]; 250 μg/kg) was “+27.3 ± 8.1 % of Control”.
With `CCOC(=O)C1(c2ccccc2)CCN(CCC(O)c2ccccc2)CC1` (centres unmarked) [phenoperidine, 1-(3-hydroxy-3-phenylpropyl)-4-phenylisonipecotic acid ethyl ester, reference compound] the ED50 [2] was 0.5 ± 0.1 mg/kg, the “effect on induction time of rats anesthetized with halothane” value ([1]; phenoperidine hydrochloride 25 μg/kg, i.v., in words) was “did not modify” and the “effect on anesthesia time of rats anesthetized with halothane” value [5] was “did not modify”. For the same compound, the undesirable side effects ([6]; 50-100 μg/kg, in words) was “salivation and vomiting were consistently observed”, the “Behavioral Changes” value ([6]; 10 μg/kg i.v.) was “None” and the “Side Effects” value ([6]; 10 μg/kg i.v.) was “None”. For the same compound, the “Behavioral Changes” value ([6]; 50 μg/kg i.v.) was “Sedation and None”, the Duration ([6]; 50 μg/kg i.v.) was 1 h and > 3 h and the Onset ([6]; 50 μg/kg i.v.) was 5 min. The “Side Effects” value ([6]; 50 μg/kg i.v.) was “Salivation and Vomit and None”, the “times at which the side effect was observed” value ([6]; 50 μg/kg i.v.) was 15 min and 10 to 15 min and the “times at which the side effect was observed” value ([6]; 100 μg/kg i.v., Vomit) was 5 to 25 min and 20 to 45 min. The “Behavioral Changes” value ([6]; 100 μg/kg i.v.) was “Sedation”, the Duration ([6]; 100 μg/kg i.v.) was 1 h and the Onset ([6]; 100 μg/kg i.v.) was 5 min. The “Side Effects” value ([6]; 100 μg/kg i.v.) was “Vomit” and the “doses producing the main beneficial effect (sedation) and undesirable side effects” value ([6]; phenoperidine i.v.) was 0.05 to 0.1 mg/kg.
